Key:
[1] = system: 7 melanoma lines; assay: MTS assay, number of viable cells; format: cell-based; conditions: 100 μM BQ788; all 7 melanoma lines tested
[2] = system: HIF-1α; assay: Real-time RT-PCR of HIF-1α transcripts; format: cell-based, human; conditions: melanoma cell lines treated with BQ788; amplitude correlates with VEGF changes
Description: (§1) Equal amounts of RNA from cells that were treated with BQ788 for 3 days were subjected to real-time RT-PCR analysis for the detection VEGF (A), HIF-1α (B) and Gravin (C) transcripts. Differences in expression levels are shown as x fold change and are statistically significant (p<0.05) unless a column in marked as non significant (N.S.). Sections of two representative tumors derived from a human melanoma cell line grown in nude mice and injected either with vehicle (D) or BQ788 (E) were stained with anti CD-31 to highlight blood vessels (brown staining, Lahav et al, 1999).
RNA was prepared from the different cell lines in different culture conditions using SV total RNA isolation kit (Promega) according to the manufacturer's protocol. For each sample RNA concentration was determined using the total RNA nano procedure of an Agilent bioanalyzer. A stock of SK-MEL-28 RNA aliquots was prepared containing 10, 20, 50, 100, 200, 500 and 1000 ng/12 μl for use as a standard curve and kept in −80° C. For the experimental unknown samples, a stock of 100 ng/12 μl RNA aliquots from each cell line and condition was prepared and stored at −80° C. […] A standard curve of Ct versus RNA quantity was established and accordingly the Ct in the unknown samples was correlated to quantity of transcript. […]

[3] = hypertension patients and healthy volunteers; cited from earlier work
[4] = system: tumors derived from a human melanoma cell line grown in nude mice; assay: Anti-CD31 immunohistochemistry of tumor sections (angiogenesis); format: in vivo; conditions: tumors injected with BQ788 vs vehicle
Description: as §1
The relationship between the expression patterns of VEGF and GRAVIN is consistent with that observed in astrocytes, where GRAVIN down-regulates VEGF expression (Lee, et al., SSeCKS regulates angiogenesis and tight junction formation in blood-brain barrier, Nat. Med., 9:900-906 (2003)). In the present study we observed, at least for the most sensitive cell lines, LN-met and SK-MEL-28, that down-regulation of GRAVIN correlates with induction of VEGF. We therefore analyzed tissue sections of tumors derived from a human melanoma cell line grown in nude mice and injected with BQ788 for signs of changes in angiogenesis (Lahav, et al., An endothelin receptor B antagonist inhibits growth and induces cell death in human melanoma cells in vitro and in vivo, Proc. Natl. Acad. Sci. U.S.A., 96:11496-11500 (1999)).

[5] = system: BCL-2A1; assay: Real-time RT-PCR of BCL-2A1 transcripts; format: cell-based, human; conditions: BQ788 3 days
Description: Equal amounts of RNA from cells that were treated with BQ788 for 3 days were subjected to real-time RT-PCR analysis for the detection of BCL-2A1 (A) and ADP ribosyltransferase 3 (B) transcripts. Total amounts are represented in A while relative (to control) values are shown in B. Differences in expression levels are shown as x fold decrease and are statistically significant (p<0.05) unless a column in marked as non significant (N.S.). Lysates of BQ788 treated cells and controls were subjected to an apoptosis ELISA detection test (C). SK-MEL-28 cells were cultured with pan caspase inhibitor (D) or with caspase 6 inhibitor (E) with or without BQ788 for 2.5 days. […] SK-MEL-28 cells were cultured for 3 days in the presence of BQ788 and assayed for caspase 6 activity (F). The difference between the columns is statistically significant (p<0.05).
RNA was prepared from the different cell lines in different culture conditions using SV total RNA isolation kit (Promega) according to the manufacturer's protocol. For each sample RNA concentration was determined using the total RNA nano procedure of an Agilent bioanalyzer. A stock of SK-MEL-28 RNA aliquots was prepared containing 10, 20, 50, 100, 200, 500 and 1000 ng/12 μl for use as a standard curve and kept in −80° C. For the experimental unknown samples, a stock of 100 ng/12 μl RNA aliquots from each cell line and condition was prepared and stored at −80° C. For each real-time experiment one series of standard curve and unknown experimental series of aliquots was put on ice for use. Complementary DNA was prepared by adding to each tube 0.5 μl of random hexamers (Promega) and 1 μl of 10 mM dNTP mix (Promega) and incubating at 65° C. for 5 min. 4 μl of 5× M-MLV buffer (Promega), 1 μl of the RNase inhibitor RNasin (Promega) and 1 μl of M-MLV RT RNase H (Promega) were then added and the solution was incubated at 42° C. for 50 min followed by 15 min at 70° C. For real time reactions 15 μl of each cDNA sample were transferred to 3 wells in a 386 well plate. To each well we added 10 μl of TaqMan universal PCR master mix (Applied Biosystems), 1 μl of primers+probe mix (Assays-on-Demand from Applied Biosystems: EDNRB Hs00240747, BCL-2A1 Hs00187845, PARP-3 Hs00154151, VEGF Hs00173626, HIF-1α Hs00153153 and Gravin Hs00374507) and 4 μl of nuclease free water (Promega). […] A standard curve of Ct versus RNA quantity was established and accordingly the Ct in the unknown samples was correlated to quantity of transcript.
If the observed reduction in BCL-2A1 and PARP-3 expression is implicated in ETRB blockade-dependent cell death, one would expect the more resistant cell lines to display less reduction in BCL-2A1 and PARP-3 levels. To test this possibility and to validate our microarray results, we used quantitative real-time PCR.

Question: Which “number of viable cells” value [1] does the source give for `CCCC[C@@H](NC(=O)[C@@H](Cc1cn(C(=O)OC)c2ccccc12)NC(=O)[C@H](CC(C)(C)C)NC(=O)N1[C@H](C)CCC[C@@H]1C)C(=O)O` [BQ788, N-cis-2,6-dimethylpiperidinocarbonyl-L-γ-methylleucyl-D-1-methoxycarbonyltrptophanyl-D-norleucine] here?
Answer: The value was “very significant loss”.

Question: And the “HIF-1α RNA expression levels” value [2]?
Answer: The value was “small but significant changes”.

Question: What about the “toxicity in clinical trials” value [3] of the same compound?
Answer: Its value is “not found to be toxic”.

Question: And the “angiogenesis in tumors (anti-CD31 staining)” value [4]?
Answer: The value was “clear increase in angiogenesis”.

Question: And the “decrease in BCL-2A1 levels” value ([5]; Cut-met line)?
Answer: Its value is 1.8 fold.

Question: And the “decrease in BCL-2A1 levels” value ([5]; LN-met)?
Answer: Its value is 2.9 fold.

Question: What about the “decrease in BCL-2A1 levels” value ([5]; SK-MEL-28) of the same compound?
Answer: The value was 5.7 fold.

Question: And the BCL-2A1 expression change ([5]; primary melanoma cells)?
Answer: The BCL-2A1 expression change was “did not change”.

Source: US20060094676A1, “Compositions and methods for treating cancer using compositions comprising an inhibitor of endothelin receptor activity” (priority 2004, published 2006)
